The compounds below were run against T1, CDK2/CyclinA (Homo sapiens, UniProt P24941) (assay: Measurement of CDK2 kinase inhibitory activity (IC50), 33P-ATP / histone H1 filter assay).
T1 construct: purchased Upstate Biotechnology
Format: biochemical
Description: Measurement of CDK2 Kinase Inhibitory Activity (IC50)
Compounds of the invention were tested for kinase inhibitory activity using the following protocol.
1.7 μl of active CDK2/CyclinA (Upstate Biotechnology, 10 U/μl) is diluted in assay buffer (250 μl of 10× strength assay buffer (200 mM MOPS pH 7.2, 250 mM β-glycerophosphate, 50 mM EDTA, 150 mM MgCl2), 11.27 μl 10 mM ATP, 2.5 μl 1M DTT, 25 μl 100 mM sodium orthovanadate, 708.53 μl H2O), and 10 μl mixed with 10 μl of histone substrate mix (60 μl bovine histone H1 (Upstate Biotechnology, 5 mg/ml), 940 μl H2O, 35 μCi γ^33P-ATP) and added to 96 well plates along with 5 μl of various dilutions of the test compound in DMSO (up to 2.5%). The reaction is allowed to proceed for 5 hours before being stopped with an excess of ortho-phosphoric acid (30 μl at 2%).
γ^33P-ATP which remains unincorporated into the histone H1 is separated from phosphorylated histone H1 on a Millipore MAPH filter plate. The wells of the MAPH plate are wetted with 0.5% orthophosphoric acid, and then the results of the reaction are filtered with a Millipore vacuum filtration unit through the wells. Following filtration, the residue is washed twice with 200 μl of 0.5% orthophosphoric acid. Once the filters have dried, 25 μl of Microscint 20 scintillant is added, and then counted on a Packard Topcount for 30 seconds.
For O=C(Nc1ccccc1)c1n[nH]c2ccc(F)cc12 [Example 80], the inhibition at 50 µM was no less than 50%.
For COC(=O)N1CCC(NC(=O)c2n[nH]c3ccc(Cl)cc23)C1 (stereo not drawn) [Example 81, 3-[(5-Chloro-1H-indazole-3-carbonyl)-amino]-pyrrolidine-1-carboxylic acid methyl ester], the inhibition at 50 µM was no less than 50%.
O=C(Nc1ccccc1)c1n[nH]c2ccc(N3CCCC3)cc12 [Example 84, 5-pyrrolidin-1-yl-1H-indazole-3-carboxylic acid phenylamide] gave an inhibition at 50 µM of no less than 50%.
O=C(Nc1ccccc1)c1n[nH]c2ccc(-c3ccccc3-c3ccccc3)cc12 [Example 85, 5-Biphenyl-2-yl-1H-indazole-3-carboxylic acid phenylamide] was tested, and the inhibition at 50 µM was no less than 50%.
O=C(Nc1ccccc1)c1n[nH]c2ccc(N3CCCS3(=O)=O)cc12 [Example 86, 5-(1,1-Dioxo-1lambda*6*-isothiazolidin-2-yl)-1H-indazole-3-carboxylic acid phenylamide] gave an inhibition at 50 µM of no less than 50%.
In the case of O=C(Nc1ccccc1)c1n[nH]c2ccc(CCc3ccccc3)cc12 [Example 87, 5-Phenethyl-1H-indazole-3-carboxylic acid phenylamide], the inhibition at 50 µM is reported as no less than 50%.

Reference: US20060135589A1, “1h-Indazole-3-carboxamide compounds as cyclin dependent kinase (cdk) inhibitors” (Astex Technology, Inc., priority 2002, published 2006)
